From PMC5590943, “Pharmacological characterisation of S 47445, a novel positive allosteric modulator of AMPA receptors” (PLoS ONE, 2017)

Columns and labels:
NMDA receptors = experiment: NMDA-evoked currents, oocytes injected with rat cortex poly(A+) mRNA; details: n = 3
[1] = system: Guanylyl cyclase (stimulated); experiment: Enzyme and cell-based assay, GTP (0.1 mM) / SNP (10 μM)
K^+V channel = experiment: Binding assay, [125I]α-dendrotoxin
male NMRI mice = experiment: Spontaneous locomotor activity in mice; assay type: in vivo, mouse; details: 10, 30 and 100 mg/kg p.o. acute
Description: Locomotor activity was measured in male NMRI mice (18–20 g, Janvier Labs, Le Genest Saint Isle, France) placed in open-fields equipped with infrared sensors (Imetronic, Pessac, France). Two parameters were automatically computed: the global locomotor activity and the number of rearing by counting the number of times the animal cut photocells. Mice were placed in the apparatus 30 min after oral administration of S 47445 (10, 30 and 100 mg/kg) or vehicle. Spontaneous locomotor activity was recorded for 60 min divided in 6 x 10-min periods. The global locomotor activity was analysed using two way ANOVA (dose x time) followed by Dunnett’s post hoc test. Analyses were performed using SAS v9.2 software (SAS Institute, Cary, NC).

PDE3 (h) = experiment: Enzyme and cell-based assay, [3H]cAMP + cAMP (0.1 μM)
male C57Bl/6 mice = experiment: Spontaneous alternation in a T-maze in mice; assay type: in vivo, mouse; details: 180 s inter-trial delay
Description: Novel object recognition and T-maze studies were conducted respectively in male OFA rats (150–175 g, Charles River, Saint-Germain-Nuelles, France) and male C57Bl/6 mice (5.5–6.5 month-old, Charles River, Saint-Germain-Nuelles, France). Animals were housed in collective cages with continuous access to tap water and food on a 12 h light-dark cycle, in a temperature-controlled (21 ± 1°C) and ventilated room. On completion of studies subjects were euthanized by either CO2 inhalation or intraperitoneal (i.p.) lethal pentobarbital injection. The novel object recognition test was used as the primary in vivo screening assay to identify AMPA-PAMs. The T-maze task was performed using a modified continuous performance procedure previously described in mice. […]
Behavioral testing was conducted in a T-shaped maze made of grey Plexiglas using mice. […] Photoelectric cells detected the position of the mouse on the maze. […]
Both alternation performance and latency of entry were assessed. […] The successive sequence of visits for the 7 first trials determined the level of alternation. A percentage of alternation was calculated for each mouse, and corresponded to the number of alternations performed relative to the number maximal of alternation (n = 6). […] The mean latency of entry from trial 2 to trial 7 was calculated for each mouse. […]

[2] = system: rat primary cortical cell cultures; experiment: LDH release toxicity assay on rat primary cortical cell cultures; details: S 47445 10 μM
[3] = target: AMPA/Kainate chimerae GluA1(K2S1) (Homo sapiens, UniProt P42261, A392I/A426D/A443L/A444R/A447S/A473Q/A536S/C542Y/D385S/D386Q/D417E/D470A/D533N/DEL395-402/E430Y/E441D/E457R/E501K/E538D/F388G/F429L/F545L/G479R/G484H/H449I/I446L/I458L/I518Y/I548L/INS382DPASGLNM/INS391N/INS555VIA/K448T/K472G/K519R/K523G/K525N/L422F/L456I/L497Y/M421L/M517L/N383T/N425S/N427K/P469D/Q405S/Q428P/Q522N/R455E/R467Q/R485K/S453T/S460E/S511T/S524T/T408S/T471N/T494A/V389K/V404L/V440I/V450L/V482I/V488L/V544L/V552C/Y381T/Y409L/Y435F/Y452F/Y483D/Y537P); experiment: Glutamate-evoked current in oocytes expressing AMPA/Kainate chimera; details: n = 5
AMPA/Kainate chimerae GluA1(K2S1), sequence (P42261 with tags, fused parts or gaps with the stated changes): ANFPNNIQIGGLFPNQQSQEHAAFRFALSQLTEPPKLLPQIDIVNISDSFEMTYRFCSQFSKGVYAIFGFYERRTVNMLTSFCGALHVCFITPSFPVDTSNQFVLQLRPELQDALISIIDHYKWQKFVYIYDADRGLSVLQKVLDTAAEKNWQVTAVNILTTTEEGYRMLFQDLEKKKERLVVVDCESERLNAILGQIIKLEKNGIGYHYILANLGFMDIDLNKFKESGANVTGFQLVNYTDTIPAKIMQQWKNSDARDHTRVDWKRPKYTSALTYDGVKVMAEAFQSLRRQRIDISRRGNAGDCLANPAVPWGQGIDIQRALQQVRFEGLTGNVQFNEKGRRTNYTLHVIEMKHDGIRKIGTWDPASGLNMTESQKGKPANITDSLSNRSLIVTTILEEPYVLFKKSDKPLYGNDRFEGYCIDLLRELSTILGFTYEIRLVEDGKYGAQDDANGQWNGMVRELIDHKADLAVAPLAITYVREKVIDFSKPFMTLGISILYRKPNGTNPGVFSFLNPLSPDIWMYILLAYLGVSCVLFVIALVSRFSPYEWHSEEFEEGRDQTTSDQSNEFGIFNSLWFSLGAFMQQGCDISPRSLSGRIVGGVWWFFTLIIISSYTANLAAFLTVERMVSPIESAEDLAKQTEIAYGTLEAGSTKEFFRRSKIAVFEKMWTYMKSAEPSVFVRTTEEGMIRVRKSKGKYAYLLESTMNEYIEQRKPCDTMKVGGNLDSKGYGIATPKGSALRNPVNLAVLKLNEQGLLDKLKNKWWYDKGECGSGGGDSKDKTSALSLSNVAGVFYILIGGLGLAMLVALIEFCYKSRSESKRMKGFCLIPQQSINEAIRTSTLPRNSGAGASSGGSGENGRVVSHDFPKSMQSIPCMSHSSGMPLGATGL

PDE4 (h) = experiment: Enzyme and cell-based assay, [3H]cAMP + cAMP (1 μM)
Androgen (h) (AR) = experiment: Binding assay, [3H]methyltrienolone

O=C1c2cc3nnn(CCc4cccc(F)c4)c(=O)c3cc2OCN1C1CC1 [S 47445, 8-cyclopropyl-3-[2-(3-fluorophenyl)ethyl]-7,8-dihydro-3H-[1,3]oxazino[6,5-g][1,2,3]benzotriazine-4,9-dione]
Effect at NMDA-evoked currents (NMDA receptors): absence of effect
% Inhibition of control specific binding ([1]; S 47445 1.0E-05 M): 7%
% Inhibition of control specific binding ([1]; S 47445 1.0E-07 M): -14%
% Inhibition of control specific binding (K^+V channel; S 47445 1.0E-05 M): -2%
% Inhibition of control specific binding (K^+V channel; S 47445 1.0E-07 M): -6%
Global spontaneous locomotor activity (male NMRI mice): did not significantly modify
Number of rearing (male NMRI mice): did not influence
% Inhibition of control specific binding (PDE3 (h); S 47445 1.0E-05 M): -5%
% Inhibition of control specific binding (PDE3 (h); S 47445 1.0E-07 M): 0%
Spontaneous alternation versus vehicle (male C57Bl/6 mice; 0.3 mg/kg i.p. acute, p≤0.05): improved the performance of spontaneous alternation
Spontaneous alternation versus vehicle (male C57Bl/6 mice; 1 mg/kg i.p. acute, p = 0.07): improved the performance of spontaneous alternation
Reduction of glutamate-induced LDH activity ([2]; glutamate 50 μM): 32.2%
Reduction of glutamate-induced LDH activity ([2]; glutamate 75 μM): 50.9%
Reduction of glutamate-induced LDH activity ([2]; glutamate 100 μM): 49.0%
Potentiating effect on glutamate-evoked current [3]: lost
% Inhibition of control specific binding (PDE4 (h); S 47445 1.0E-05 M): -12%
% Inhibition of control specific binding (PDE4 (h); S 47445 1.0E-07 M): 20%
% Inhibition of control specific binding (Androgen (h) (AR); S 47445 1.0E-05 M): -5%
% Inhibition of control specific binding (Androgen (h) (AR); S 47445 1.0E-07 M): 0%
